Assay results from ChEMBL document CHEMBL1221311, “The synthesis and structure-activity relationship of 4-benzimidazolyl-piperidinylcarbonyl-piperidine analogs as histamine H3 antagonists” (Bioorg Med Chem Lett, 2010).

Experiments:
[1] = target: Cytochrome P450 3A4 (Homo sapiens, UniProt P08684); assay: Inhibition of CYP3A4 in human liver microsomes; format: ADME, Microsome
[2] = target: hERG (KCNH2) (Homo sapiens, UniProt Q12809); assay: Inhibition of human ERG at 10 uM
[3] = AUC in rat at 10 mg/kg, po; format: ADME, organism-based; design: dose 10 mg/kg, route oral; settings: plasma
[4] = system: Cavia porcellus; assay: Antihypertensive activity in po dosed guinea pig assessed as inhibition of (R)-alpha-methylhistamine-induced hypertension; format: functional
[5] = Clearance in rat hepatocytes assessed per million cells; format: ADME, cell-based, Liver, Hepatocyte
[6] = target: Cytochrome P450 2D6 (Homo sapiens, UniProt P10635); assay: Inhibition of CYP2D6 in human liver microsomes; format: ADME, Microsome
[7] = Clearance in human hepatocytes assessed per million cells; format: ADME, cell-based, Liver, Hepatocyte
[8] = target: Histamine H3 receptor (Cavia porcellus, UniProt Q9JI35); assay: Displacement of [3H]Nalpha-methylhistamine from histamine H3 receptor in guinea pig brain
[9] = target: Cytochrome P450 2C9 (Homo sapiens, UniProt P11712); assay: Inhibition of CYP2C9 in human liver microsomes; format: ADME, Microsome
[10] = target: Histamine H3 receptor (Cavia porcellus) (UniProt Q9JI35); assay: Displacement of [3H]Nalpha-methylhistamine from histamine H3 receptor in guinea pig brain at 1 uM
Chain of Histamine H3 receptor (Cavia porcellus) (Q9JI35 whole entry): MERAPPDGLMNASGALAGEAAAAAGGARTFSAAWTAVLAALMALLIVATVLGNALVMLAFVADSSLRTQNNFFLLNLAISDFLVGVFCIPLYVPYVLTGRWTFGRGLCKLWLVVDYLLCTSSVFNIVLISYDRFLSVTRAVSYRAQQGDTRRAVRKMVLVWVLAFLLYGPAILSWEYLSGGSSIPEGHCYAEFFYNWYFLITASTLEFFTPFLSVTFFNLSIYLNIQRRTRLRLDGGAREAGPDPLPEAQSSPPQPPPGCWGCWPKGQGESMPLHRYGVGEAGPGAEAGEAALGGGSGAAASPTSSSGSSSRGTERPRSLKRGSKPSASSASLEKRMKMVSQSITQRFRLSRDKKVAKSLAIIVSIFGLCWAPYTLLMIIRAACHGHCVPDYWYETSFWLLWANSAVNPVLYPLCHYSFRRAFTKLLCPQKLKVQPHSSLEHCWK

Chain of Histamine H3 receptor (Q9JI35 whole entry): as above
Chain of hERG (KCNH2) (Q12809 whole entry): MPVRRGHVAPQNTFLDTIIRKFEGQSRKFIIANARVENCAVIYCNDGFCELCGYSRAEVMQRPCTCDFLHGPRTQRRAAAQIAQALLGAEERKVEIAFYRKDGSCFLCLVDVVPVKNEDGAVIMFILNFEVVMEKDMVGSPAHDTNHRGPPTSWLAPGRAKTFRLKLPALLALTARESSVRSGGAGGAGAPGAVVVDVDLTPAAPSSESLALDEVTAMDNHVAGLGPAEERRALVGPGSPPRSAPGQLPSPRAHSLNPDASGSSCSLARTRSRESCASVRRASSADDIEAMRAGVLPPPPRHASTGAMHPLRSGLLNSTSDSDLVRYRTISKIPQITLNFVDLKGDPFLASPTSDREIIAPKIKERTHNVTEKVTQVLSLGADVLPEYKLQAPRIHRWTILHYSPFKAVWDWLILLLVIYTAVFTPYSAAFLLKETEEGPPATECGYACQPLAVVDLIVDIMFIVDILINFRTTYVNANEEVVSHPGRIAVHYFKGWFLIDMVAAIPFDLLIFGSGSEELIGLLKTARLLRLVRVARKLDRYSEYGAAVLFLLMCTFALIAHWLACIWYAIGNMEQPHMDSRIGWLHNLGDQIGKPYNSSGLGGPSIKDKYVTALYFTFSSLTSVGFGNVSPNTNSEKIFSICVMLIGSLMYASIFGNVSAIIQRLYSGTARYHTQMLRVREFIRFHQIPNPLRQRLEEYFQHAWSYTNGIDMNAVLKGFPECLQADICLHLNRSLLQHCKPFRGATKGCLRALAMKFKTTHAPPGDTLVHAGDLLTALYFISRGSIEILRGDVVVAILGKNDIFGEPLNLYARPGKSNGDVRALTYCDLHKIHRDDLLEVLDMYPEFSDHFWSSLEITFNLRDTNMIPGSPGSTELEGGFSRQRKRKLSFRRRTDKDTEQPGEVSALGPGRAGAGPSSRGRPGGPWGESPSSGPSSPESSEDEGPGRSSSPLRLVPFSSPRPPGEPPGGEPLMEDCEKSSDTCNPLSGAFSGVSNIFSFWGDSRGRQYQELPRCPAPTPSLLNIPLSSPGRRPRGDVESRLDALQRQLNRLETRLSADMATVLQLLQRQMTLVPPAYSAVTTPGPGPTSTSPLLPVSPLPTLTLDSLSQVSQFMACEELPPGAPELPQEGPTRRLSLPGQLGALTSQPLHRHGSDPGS
Chain of Cytochrome P450 3A4 (P08684 whole entry): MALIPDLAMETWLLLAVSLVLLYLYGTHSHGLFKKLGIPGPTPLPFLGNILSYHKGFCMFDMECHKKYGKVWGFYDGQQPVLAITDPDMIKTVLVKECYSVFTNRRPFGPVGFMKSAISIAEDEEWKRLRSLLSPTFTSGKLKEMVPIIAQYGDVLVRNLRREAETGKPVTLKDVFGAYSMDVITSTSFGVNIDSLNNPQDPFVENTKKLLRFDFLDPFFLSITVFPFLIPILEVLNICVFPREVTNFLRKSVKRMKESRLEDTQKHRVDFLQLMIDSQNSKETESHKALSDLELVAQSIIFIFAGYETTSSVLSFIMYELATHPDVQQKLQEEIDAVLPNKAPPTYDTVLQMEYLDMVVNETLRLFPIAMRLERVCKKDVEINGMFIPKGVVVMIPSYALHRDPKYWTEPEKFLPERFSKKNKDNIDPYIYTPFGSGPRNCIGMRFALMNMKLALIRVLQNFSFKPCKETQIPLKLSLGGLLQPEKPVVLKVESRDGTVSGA
Chain of Cytochrome P450 2C9 (P11712 whole entry): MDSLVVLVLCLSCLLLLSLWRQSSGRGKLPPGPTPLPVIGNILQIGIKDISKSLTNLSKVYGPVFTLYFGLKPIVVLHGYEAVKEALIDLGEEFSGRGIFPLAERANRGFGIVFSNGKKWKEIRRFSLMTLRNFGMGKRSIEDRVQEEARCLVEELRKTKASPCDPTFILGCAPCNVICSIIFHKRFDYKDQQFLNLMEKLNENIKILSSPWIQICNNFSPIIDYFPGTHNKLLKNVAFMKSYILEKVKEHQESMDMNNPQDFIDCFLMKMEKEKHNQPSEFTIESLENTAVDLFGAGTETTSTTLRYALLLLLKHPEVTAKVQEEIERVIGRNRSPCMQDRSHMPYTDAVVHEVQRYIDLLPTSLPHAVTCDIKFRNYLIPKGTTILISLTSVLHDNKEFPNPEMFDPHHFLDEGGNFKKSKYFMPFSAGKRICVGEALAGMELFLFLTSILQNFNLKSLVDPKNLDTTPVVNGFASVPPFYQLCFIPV
Chain of Cytochrome P450 2D6 (P10635 whole entry): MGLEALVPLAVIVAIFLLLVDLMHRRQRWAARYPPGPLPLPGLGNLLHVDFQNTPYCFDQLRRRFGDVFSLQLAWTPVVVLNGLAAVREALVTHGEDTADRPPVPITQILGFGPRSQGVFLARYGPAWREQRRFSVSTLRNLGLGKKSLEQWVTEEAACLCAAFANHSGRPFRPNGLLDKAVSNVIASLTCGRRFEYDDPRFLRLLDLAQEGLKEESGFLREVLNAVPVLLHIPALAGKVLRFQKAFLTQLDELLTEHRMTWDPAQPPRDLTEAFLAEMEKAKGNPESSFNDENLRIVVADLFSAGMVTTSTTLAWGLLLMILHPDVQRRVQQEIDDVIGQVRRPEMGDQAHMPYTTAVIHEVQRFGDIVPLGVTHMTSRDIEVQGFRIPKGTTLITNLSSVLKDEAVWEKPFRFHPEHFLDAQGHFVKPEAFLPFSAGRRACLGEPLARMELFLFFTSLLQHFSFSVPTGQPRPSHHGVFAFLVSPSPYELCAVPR

| SMILES | IC50 [1] [µM] | IC50 [6] [µM] | Ki [8] [nM] | also measured |
| --- | --- | --- | --- | --- |
| O=C(C1CCN(Cc2ccncc2)CC1)N1CCC(n2c(=O)n(CCN3CCCCC3)c3ccccc32)CC1 | 30 | 3.7 | 0.15 | inhibition at 10 µM [2]: < 10%; AUC [3]: 0.24 µM·h; ED50 [4]: < 0.3 mg/kg; hepatocyte CLint [5]: < 10 µL/min/1e6 cells; hepatocyte CLint [7]: < 10 µL/min/1e6 cells; IC50 [9]: > 20 µM |
| O=C(C1CCN(Cc2cccnc2)CC1)N1CCC(n2c(=O)[nH]c3ccccc32)CC1 |  |  | 174 |  |
| O=C(C1CCN(Cc2ccccn2)CC1)N1CCC(n2c(=O)[nH]c3ccccc32)CC1 |  |  |  | inhibition [10]: 40% |
| CC(C)OCCn1c(=O)n(C2CCN(C(=O)C3CCN(Cc4ccncc4)CC3)CC2)c2ccccc21 | 6 | > 20 | 0.65 |  |
| O=C(C1CCN(Cc2ccncc2)CC1)N1CCN(C2CCCCC2)CC1 |  |  | 14 |  |
| O=C(C1CCN(Cc2ccncc2)CC1)N1CCC(n2c(=O)n(CCN3CCOCC3)c3ccccc32)CC1 | 30 | > 20 | 0.5 | inhibition at 10 µM [2]: < 10%; AUC [3]: 0.24 µM·h; ED50 [4]: < 0.3 mg/kg; hepatocyte CLint [5]: < 10 µL/min/1e6 cells; hepatocyte CLint [7]: < 10 µL/min/1e6 cells; IC50 [9]: > 20 µM |
| CN1CCN(C(=O)C2CCN(Cc3ccncc3)CC2)CC1 |  |  | 355 |  |
| CN(C)CCCn1c(=O)n(C2CCN(C(=O)C3CCN(Cc4ccncc4)CC3)CC2)c2ccccc21 | > 30 | 1.6 |  | IC50 [9]: > 20 µM |
| CC(c1ccncc1)N1CCC(C(=O)N2CCC(n3c(=O)[nH]c4ccccc43)CC2)CC1 (configuration not stated) |  |  | 20 |  |
| Cn1cc(CN2CCC(C(=O)N3CCC(n4c(=O)[nH]c5ccccc54)CC3)CC2)c2ccccc21 |  |  |  | inhibition [10]: 30% |
| O=C(C1CCN(Cc2ccncc2Cl)CC1)N1CCC(n2c(=O)[nH]c3ccccc32)CC1 |  |  | 222 |  |
| O=C(C1CCN(Cc2cc[n+]([O-])cc2)CC1)N1CCC(n2c(=O)[nH]c3ccccc32)CC1 |  |  | 440 |  |
| O=C(C1CCN(Cc2ccncc2)CC1)N1CCC(n2c(=O)n(CCOc3ccccc3)c3ccccc32)CC1 | 9 | 20 | 2 |  |
| O=C(c1ccncc1)N1CCC(C(=O)N2CCC(n3c(=O)[nH]c4ccccc43)CC2)CC1 |  |  |  | inhibition [10]: 11% |
| O=C(C1CCN(Cc2ccoc2)CC1)N1CCC(n2c(=O)[nH]c3ccccc32)CC1 |  |  | 204 |  |
| O=C(NCCc1ccccc1)c1cccc(CN2CCN(C(=O)C3CCN(Cc4ccncc4)CC3)CC2)c1 |  |  | 27 |  |
| COc1ccc(Cn2c(=O)n(C3CCN(C(=O)C4CCN(Cc5ccncc5)CC4)CC3)c3ccccc32)cc1 | 0.4 | 20 | 0.25 |  |
| CCOCCCn1c(=O)n(C2CCN(C(=O)C3CCN(Cc4ccncc4)CC3)CC2)c2ccccc21 | 10.6 | > 20 | 0.8 |  |
| Cn1ccc(CN2CCC(C(=O)N3CCC(n4c(=O)[nH]c5ccccc54)CC3)CC2)c1 |  |  |  | inhibition [10]: 42% |
| O=C(C1CCN(Cc2ccsc2)CC1)N1CCC(n2c(=O)[nH]c3ccccc32)CC1 |  |  | 104 |  |
| O=C(C1CCN(Cc2ccnc3ccccc23)CC1)N1CCC(n2c(=O)[nH]c3ccccc32)CC1 |  |  | 681 |  |
| COc1cccc(Cn2c(=O)n(C3CCN(C(=O)C4CCN(Cc5ccncc5)CC4)CC3)c3ccccc32)c1 | 0.2 | 5.6 | 0.3 |  |
| O=c1[nH]c2ccccc2n1C1CCN(CC2CCN(Cc3ccncc3)CC2)CC1 |  |  | 24 |  |
| O=C(N1CCC(n2c(=O)[nH]c3ccccc32)CC1)N1CCN(Cc2ccncc2)CC1 |  |  | 17 |  |
| O=C(CC1CCN(Cc2ccncc2)CC1)N1CCC(n2c(=O)[nH]c3ccccc32)CC1 |  |  | 180 |  |
| O=C(C1CCN(Cc2ccncc2)CC1)N1CCC(n2c(=O)[nH]c3ccccc32)CC1 | 9.5 | > 20 | 2 | inhibition at 10 µM [2]: < 10%; AUC [3]: 0.24 µM·h; ED50 [4]: < 0.3 mg/kg; hepatocyte CLint [5]: < 10 µL/min/1e6 cells; hepatocyte CLint [7]: < 10 µL/min/1e6 cells; IC50 [9]: > 20 µM |
| COCCCNC(=O)c1cccc(CN2CCN(C(=O)C3CCN(Cc4ccncc4)CC3)CC2)c1 |  |  | 210 |  |
| O=C(C1CCN(Cc2ccncc2)CC1)N1CCC(n2c(=O)n(Cc3ccc(Cl)cc3)c3ccccc32)CC1 | 0.4 | 5.8 | 0.9 |  |

More lines, main results first:

| IC50 [1] [µM] | IC50 [6] [µM] | Ki [8] [nM] | SMILES | also measured |
| --- | --- | --- | --- | --- |
| > 30 | > 20 | 0.95 | O=C(C1CCN(Cc2ccncc2)CC1)N1CCC(n2c(=O)n(CCO)c3ccccc32)CC1 |  |
|  |  | 20 | O=C(C1CCN(Cc2ccncc2)CC1)N1CCC2(CC1)C(=O)NCN2c1ccccc1 |  |
| 11 | > 20 | 2 | COCCn1c(=O)n(C2CCN(C(=O)C3CCN(Cc4ccncc4)CC3)CC2)c2ccccc21 |  |
| 0.3 | 4.2 | 2 | O=C(C1CCN(Cc2ccncc2)CC1)N1CCC(n2c(=O)n(Cc3cccc(Cl)c3)c3ccccc32)CC1 |  |
| > 30 | 10.5 | 0.2 | CN(C)CCn1c(=O)n(C2CCN(C(=O)C3CCN(Cc4ccncc4)CC3)CC2)c2ccccc21 | inhibition at 10 µM [2]: < 10%; AUC [3]: 0.24 µM·h; ED50 [4]: < 0.3 mg/kg; hepatocyte CLint [5]: < 10 µL/min/1e6 cells; hepatocyte CLint [7]: < 10 µL/min/1e6 cells; IC50 [9]: > 20 µM |
|  |  | 17 | O=C(c1ccccc1)C1CCN(C(=O)C2CCN(Cc3ccncc3)CC2)CC1 |  |
| 0.4 | 9.1 | 0.2 | O=C(C1CCN(Cc2ccncc2)CC1)N1CCC(n2c(=O)n(Cc3ccccc3)c3ccccc32)CC1 |  |
|  |  | 537 | O=C(C1CCN(CCc2ccncc2)CC1)N1CCC(n2c(=O)[nH]c3ccccc32)CC1 |  |
|  |  | 5.5 | O=C(C1CCN(Cc2ccncc2)CC1)N1CCC(Cc2ccccc2)CC1 |  |
| 7.5 | > 20 | 4.3 | Cn1c(=O)n(C2CCN(C(=O)C3CCN(Cc4ccncc4)CC3)CC2)c2ccccc21 |  |
| 13.5 | > 20 | 1.7 | CCOCCn1c(=O)n(C2CCN(C(=O)C3CCN(Cc4ccncc4)CC3)CC2)c2ccccc21 |  |
| 1.5 | 1.9 | 0.4 | CC(C)Cn1c(=O)n(C2CCN(C(=O)C3CCN(Cc4ccncc4)CC3)CC2)c2ccccc21 |  |
| 0.5 | 6.7 | 4.5 | O=C(C1CCN(Cc2ccncc2)CC1)N1CCC(n2c(=O)n(Cc3ccccc3Cl)c3ccccc32)CC1 |  |
|  |  | 6.3 | O=C(C1CCN(Cc2ccncc2)CC1)N1CCN(Cc2cccc(Cl)c2)CC1 |  |
|  |  | 30 | O=C(C1CCN(Cc2ccncc2)CC1)N1CCC(O)(Cc2ccccc2)CC1 |  |
|  |  | 40 | O=C(C1CCN(Cc2ccncc2)CC1)N1CCN(c2ccccc2)CC1 |  |
|  |  | 28 | O=C(C1CCN(Cc2ccncc2)CC1)N1CCN(Cc2ccccc2)CC1 |  |
